# Results published in patent US20170197935A1, “INHIBITORS OF DNA GYRASE FOR THE TREATMENT OF BACTERIAL INFECTIONS” (Vitas Pharma Research Private Limited, priority 2012, published 2017).
# Experiments:
# [1] = system: E. coli 86; assay: MIC against FQ resistant clinical strain E. coli 86; type: cell-based; settings: Escherichia coli, fluoroquinolone resistant clinical strain, read-out: MIC against FQ resistant strains, E. coli 86
# Protocol: (§1) The compounds were tested by the microbroth dilution method (National committee for Clinical Laboratory Standards, 2011, M07-08) and the Minimum Inhibitory Concentration (MIC) was determined.
# [2] = system: Methicillin resistant Staphylococcus aureus (ATCC 33591); assay: MIC by microbroth dilution, MRSA ATCC 33591; type: cell-based; settings: ATCC33591, Formula I compounds, read-out: MIC Methicillin resistant Staphylococcus aureus (ATCC 33591)
# Method in brief: (§2)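 Broth microdilution per NCCLS/CLSI M07-08 (2011); MIC recorded as the lowest compound concentration inhibiting visible bacterial growth.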
# [3] = system: Staphylococcus aureus (ATCC 29213); assay: MIC by microbroth dilution, Staphylococcus aureus ATCC 29213; type: cell-based; settings: ATCC29213
# Protocol: (§3) Shown below are the microbiological activities of representative compounds of Formula I of the invention. The compounds were tested by the microbroth dilution method (National committee for Clinical Laboratory Standards, 2011, […]-08) and the Minimum Inhibitory Concentration (MIC) was determined.
# [4] = system: Enterococcus faecalis (ATCC 29212); assay: MIC by microbroth dilution, Enterococcus faecalis ATCC 29212; type: cell-based; settings: ATCC29212
# Protocol: as §3
# [5] = system: K. pneumoniae (ATCC 700603); assay: MIC by microbroth dilution, K. pneumoniae ATCC 700603; type: cell-based; settings: Klebsiella pneumoniae, ATCC700603, Formula I compounds
# Method in brief: as §2
# [6] = Single dose pharmacokinetics in male Swiss albino mice; type: in vivo; settings: for AUC(0-inf) / Cmax / half-life: mouse, in vivo, single dose
# Protocol: (§4) Compounds were dosed to male Swiss albino mice to determine the pharmacokinetic profiles.
# as §4
# [7] = system: S. aureus (MRSA ATCC 33591); assay: Systemic infection model in mice against S. aureus (MRSA ATCC 33591); type: in vivo; settings: 10 mg/kg i.v. one hour after infection and again 4 hours later, 15× lethal dose MRSA ATCC33591 intraperitoneally
# Protocol: In order to evaluate the in vivo efficacy of the scaffold, we tested representative compounds for activity in the systemic infection model in mice (Antimicrobial Agents and Chemotherapy, 47, 2507-2512, 2003). In this model, a 15× medial lethal dose of the bacteria (MRSA ATCC33591) is administered to mice intraperiotoneally. An hour later, the compound is administered i.v. and again 4 hours later. VT-03-00061, was efficacious with a 50% survival at a dose of 10 mg/kg in this model.
# [8] = target: hERG (Homo sapiens, UniProt Q12809); assay: biochemical
# Chain of hERG (Q12809 whole entry): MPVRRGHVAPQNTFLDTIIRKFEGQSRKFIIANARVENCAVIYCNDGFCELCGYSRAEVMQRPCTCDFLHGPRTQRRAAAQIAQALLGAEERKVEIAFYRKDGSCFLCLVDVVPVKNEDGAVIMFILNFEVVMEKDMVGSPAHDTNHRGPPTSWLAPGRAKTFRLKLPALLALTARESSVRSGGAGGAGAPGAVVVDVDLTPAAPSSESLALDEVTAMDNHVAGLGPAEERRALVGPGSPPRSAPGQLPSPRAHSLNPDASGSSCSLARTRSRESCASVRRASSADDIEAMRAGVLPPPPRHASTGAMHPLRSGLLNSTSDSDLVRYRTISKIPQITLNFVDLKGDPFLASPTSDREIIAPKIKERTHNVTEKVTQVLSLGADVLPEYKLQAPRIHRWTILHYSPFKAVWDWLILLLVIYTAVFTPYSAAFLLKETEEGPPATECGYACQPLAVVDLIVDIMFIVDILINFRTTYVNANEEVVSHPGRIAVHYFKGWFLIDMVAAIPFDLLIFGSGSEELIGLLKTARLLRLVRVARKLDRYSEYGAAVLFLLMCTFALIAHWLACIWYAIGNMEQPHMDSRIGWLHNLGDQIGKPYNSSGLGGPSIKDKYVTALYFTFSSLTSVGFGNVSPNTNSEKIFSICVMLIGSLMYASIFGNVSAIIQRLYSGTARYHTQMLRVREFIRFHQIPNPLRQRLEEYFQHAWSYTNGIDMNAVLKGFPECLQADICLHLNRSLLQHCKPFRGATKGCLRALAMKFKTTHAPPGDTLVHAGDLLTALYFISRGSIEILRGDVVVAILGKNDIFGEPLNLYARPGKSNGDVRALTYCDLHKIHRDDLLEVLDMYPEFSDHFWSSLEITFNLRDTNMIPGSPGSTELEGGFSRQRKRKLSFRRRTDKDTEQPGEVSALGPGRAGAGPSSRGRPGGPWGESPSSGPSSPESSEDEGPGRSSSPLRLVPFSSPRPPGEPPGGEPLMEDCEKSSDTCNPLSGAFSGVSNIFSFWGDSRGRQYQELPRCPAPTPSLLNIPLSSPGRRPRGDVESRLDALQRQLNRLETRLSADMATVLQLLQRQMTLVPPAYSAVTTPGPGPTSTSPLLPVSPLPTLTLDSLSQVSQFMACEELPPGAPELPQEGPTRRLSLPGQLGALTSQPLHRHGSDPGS
# Protocol: To test the ability of the VT-03 compounds to bind the hERG channel, membranes expressing the hERG channel were incubated with radiolabeled Astemizole and displacement of the labeled ligand in the presence of compounds was measured.
# To test the ability of the VT-03 compounds (of Formula II) to bind the hERG channel, membranes expressing the hERG channel were incubated with radiolabeled Astemizole and displacement of the labeled ligand in the presence of compounds was measured.
# [9] = system: Streptococcus pneumoniae (ATCC 6301); assay: MIC by microbroth dilution, Streptococcus pneumoniae ATCC 6301; type: cell-based; settings: ATCC6301
# Protocol: as §3
# [10] = system: MRSA E9823; assay: MIC against FQ resistant clinical strain MRSA E9823; type: cell-based; settings: Staphylococcus aureus, fluoroquinolone resistant clinical strain, read-out: MIC against FQ resistant strains, MRSA E9823
# Protocol: (§5) Shown below are the microbiological activities of representative compounds of Formula I of the invention. The compounds were tested by the microbroth dilution method (National committee for Clinical Laboratory Standards, 2011, M07-08) and the Minimum Inhibitory Concentration (MIC) was determined.
# (§6) To test if compounds are able to overcome fluoroquinolone resistance, we have determined the MICS against Fluoroquinolone (FQ) resistant clinical strains of MRSA and E. coli.
# [11] = system: E. coli E1851; assay: MIC against FQ resistant clinical strain E. coli E1851; type: cell-based; settings: Escherichia coli, fluoroquinolone resistant clinical strain, read-out: MIC against FQ resistant strains, E. coli E1851
# Protocol: as §1
# [12] = system: E. coli U5690; assay: MIC against FQ resistant clinical strain E. coli U5690; type: cell-based; settings: Escherichia coli, fluoroquinolone resistant clinical strain, read-out: MIC against FQ resistant strains, E. coli U5690
# Protocol: as §1
# [13] = system: Moraxella catarrhalis (ATCC 8176); assay: MIC by microbroth dilution, Moraxella catarrhalis ATCC 8176; type: cell-based; settings: ATCC8176
# Protocol: as §3
# [14] = system: E. coli (ATCC 25922); assay: MIC by microbroth dilution, E. coli ATCC 25922; type: cell-based; settings: Escherichia coli, ATCC25922, Formula I compounds, read-out: MIC E. coli (ATCC 25922)
# Method in brief: as §2
# [15] = system: E. coli U1306; assay: MIC against FQ resistant clinical strain E. coli U1306; type: cell-based; settings: Escherichia coli, fluoroquinolone resistant clinical strain, read-out: MIC against FQ resistant strains, E. coli U1306
# Protocol: as §1
# [16] = system: MRSA 33591; assay: Mutation prevention concentration against MRSA 33591; type: cell-based
# Protocol: The mutation prevention concentration or the concentration above which mutants are unlikely to be selected, was determined based on published protocols (Antimicrobial Agents and Chemotherapy, 45, 433-438, 2001).
# [17] = system: MRSA E9749; assay: MIC against FQ resistant clinical strain MRSA E9749; type: cell-based; settings: Staphylococcus aureus, fluoroquinolone resistant clinical strain, read-out: MIC against FQ resistant strains, MRSA E9749
# Protocol: as §5, §6
# [18] = target: T1, E. coli Gyrase (Escherichia coli, UniProt P0AES4+P0AES6); assay: in vitro Gyrase supercoiling assay (Inspiralis kit); type: biochemical; settings: 1 hour at 37° C., read-out: % inhibition of DNA supercoiling activity
# T1 construct: purchased Inspiralis
# T1 sequence (P0AES4 whole entry, one chain of several): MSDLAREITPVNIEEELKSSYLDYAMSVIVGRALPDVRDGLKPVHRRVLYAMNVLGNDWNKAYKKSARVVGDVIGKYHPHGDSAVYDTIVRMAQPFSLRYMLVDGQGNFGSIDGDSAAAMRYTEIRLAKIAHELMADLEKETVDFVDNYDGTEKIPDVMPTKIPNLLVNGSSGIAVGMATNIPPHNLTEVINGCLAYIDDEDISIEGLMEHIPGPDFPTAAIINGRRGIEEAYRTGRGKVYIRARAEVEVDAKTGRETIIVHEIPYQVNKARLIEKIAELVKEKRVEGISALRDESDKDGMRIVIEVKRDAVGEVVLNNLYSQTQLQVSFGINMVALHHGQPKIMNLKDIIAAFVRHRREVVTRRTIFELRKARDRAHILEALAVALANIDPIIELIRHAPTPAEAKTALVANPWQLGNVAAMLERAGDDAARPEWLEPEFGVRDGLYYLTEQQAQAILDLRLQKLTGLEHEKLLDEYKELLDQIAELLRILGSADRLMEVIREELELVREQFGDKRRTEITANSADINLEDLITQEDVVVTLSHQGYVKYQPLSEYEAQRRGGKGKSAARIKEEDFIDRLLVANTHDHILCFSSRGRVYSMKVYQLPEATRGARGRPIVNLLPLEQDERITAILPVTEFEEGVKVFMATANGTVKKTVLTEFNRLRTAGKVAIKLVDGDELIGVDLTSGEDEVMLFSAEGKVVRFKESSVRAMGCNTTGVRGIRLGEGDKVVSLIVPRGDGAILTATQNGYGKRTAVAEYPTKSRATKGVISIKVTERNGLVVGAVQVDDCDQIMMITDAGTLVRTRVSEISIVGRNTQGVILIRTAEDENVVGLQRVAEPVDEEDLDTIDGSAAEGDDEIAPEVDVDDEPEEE
# Method in brief: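 Recombinant E. coli gyrase incubated with relaxed plasmid DNA, with or without compound, 1 h at 37° C (Inspiralis kit protocol). Products resolved by gel electrophoresis and stained with ethidium bromide; supercoiled DNA quantified by imaging as the measure of enzyme activity.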
smiles,measurement,setting,value
COc1ccc2ncc(C#N)c(CCN3CCC(NCc4ccc(C)c([N+](=O)[O-])c4)CC3)c2c1 [VT-03-00061],MIC,[1],2 µg/mL
same,MIC,[2],0.015 µg/mL
same,MIC,[3],0.015 µg/mL
same,MIC,[4],0.25 µg/mL
same,MIC,[5],8 µg/mL
same,oral bioavailability (in words),[6],orally bioavailable
same,AUC(0-inf),"[6]; intravenous, 5 mg/kg b.w.",368 ng·h/mL
same,Cmax,"[6]; intravenous, 5 mg/kg b.w.",400 ng/mL
same,half-life,"[6]; intravenous, 5 mg/kg b.w.",1.64 h
same,AUC(0-inf),"[6]; oral, 10 mg/kg b.w.",104 ng·h/mL
same,Cmax,"[6]; oral, 10 mg/kg b.w.",51.5 ng/mL
same,half-life,"[6]; oral, 10 mg/kg b.w.",1.74 h
same,F % (Oral bioavaialbility),[6]; oral 10 mg/kg vs intravenous 5 mg/kg,11.51%
same,survival,[7],50%
same,IC50,[8],> 30 µM
same,MIC,[9],0.015 µg/mL
same,MIC,[10],≤ 0.0075 µg/mL
same,MIC,[11],0.5 µg/mL
same,MIC,[12],2 µg/mL
same,MIC,[13],0.12 µg/mL
same,MIC,[14],1 µg/mL
same,MIC,[15],2 µg/mL
same,Mutation prevention concentration,[16],0.12 µg/mL
same,MIC,[17],0.015 µg/mL
same,inhibition at 0.1 µM,[18]; 0.1 μM compound,99.8%
same,inhibition at 1 µM,[18]; 1 μM compound,99.7%
